{"source": "patent US9957539B2", "about": "“Method for using hexenol glycosyl transferase” (SUNTORY HOLDINGS LIMITED, priority 2013, dated 2018)", "data": [{"system": "CsUGTC30", "assay": "Specificity of CsUGTC30 for sugar acceptors (relative activity of transglucosylation)", "type": "biochemical, Camellia sinensis", "conditions": "UDP-glucose as donor; 30 minutes at 30° C.; activity on geraniol is set to 100% (FIG. 8)", "source_text": "Standard enzyme reaction conditions are as follows.\nNext, to clarify the substrate specificity of CsUGTC30, geraniol, linalool, eugenol, benzyl alcohol, 2-phenylethanol, quercetin and cyanidin were each used as a substrate to determine the relative activity of transglucosylation with the above enzyme and under the above enzyme reaction conditions.", "values": [{"molecule": "C=CC(C)(O)CCC=C(C)C", "note": "(stereo not drawn) [linalool]", "relative transglucosylation activity of CsUGTC30 on the substrate (sugar acceptor)": "transglycosylation activity"}, {"molecule": "OCc1ccccc1", "note": "[benzyl alcohol]", "relative transglucosylation activity of CsUGTC30 on the substrate (sugar acceptor)": "second highest activity"}, {"molecule": "OCCc1ccccc1", "note": "[2-phenylethanol]", "relative transglucosylation activity of CsUGTC30 on the substrate (sugar acceptor)": "transglycosylation activity"}, {"molecule": "CC(C)=CCC/C(C)=C/CO", "note": "[geraniol]", "relative transglucosylation activity of CsUGTC30 on the substrate (sugar acceptor)": "highest activity"}, {"molecule": "O=c1c(O)c(-c2ccc(O)c(O)c2)oc2cc(O)cc(O)c12", "note": "[quercetin]", "relative transglucosylation activity of CsUGTC30 on the substrate (sugar acceptor)": "no transglycosylation activity"}, {"molecule": "CC/C=C\\CCO", "note": "[hexenol, cis-3-hexen-1-ol]", "relative transglucosylation activity of CsUGTC30 on the substrate (sugar acceptor)": "at the same level"}, {"molecule": "C=CCc1ccc(O)c(OC)c1", "note": "[eugenol]", "relative transglucosylation activity of CsUGTC30 on the substrate (sugar acceptor)": "second highest activity"}]}, {"system": "not listed separately", "assay": "Hexenol glycosylation activity of recombinant UGT enzymes (enzyme reaction with UDP-glucose, LC-MS analysis of product)", "type": "biochemical", "conditions": "2 mM UDP-glucose, […] sugar acceptor substrate, pH 7.5, 30° C. for 1 hour; product detected by LC-MS against reference standard", "method": "Standard enzyme reaction conditions are as follows. […] The enzyme reaction solution (5 μl) was analyzed by LC-MS under the following conditions. LC Conditions • Column: CAPCELL PAK C18-UG120 (2.0 mm I.D.×150 mm) • Mobile phase: A: […] (m/z 261, 297, 307) Since green leaf volatiles are found in a wide range of land plants, a search was conducted for UGTs causing glycosylation of green leaf volatiles derived from other plant lines on the basis of homology with the sequence of Camellia sinensis Cs_UGT_C30.", "values": [{"molecule": "Cs_UGT85like_C1: Camellia sinensis glycosyltransferase, amino acid sequence SEQ ID NO: 4, expressed His-tagged in E. coli (protein, listed as Camellia sinensis, His tag) MAKLHFFFFPVMAQGHMIPTLDMAKLFASHGVKATIITTPLNAPYFTRSIQRTHHSISVLTLKFPAVEAGLVEGCESVDQIPSPDMLPNFLKATTMLQDPLERLLQDSRPDCLVADMFFPWATHVAAKFNIPRLVFHGTGFFTLCASENLRLYMPQASVSSDDEPFLVPNLPHKIMLTRSQLPENERCDTETGLSTMLKQVKETELTSYGVIVNSFYELEPDYADYYRNVLGRRAWHIGPVSLCNREVEDKAQRGKESAIDEVECLKWLNSKKPNSVIYVCFGSLGDFTASQLFELAMGLEASGQQFIWVVRKGKIEEDGDEKRLPEEFEERMKDKGLIIRGWAPQVLILDHESIGGFVTHCGWNSILEGVCAGVPMVTWPRFAEQFYNEKLVTEVLRIGVGVGARQWQIGAGSDCIKGETIAKAVKRVMEAGEEAEGMRTRARAAKDMAKKAVEEGGSSYSDLNALIQEMSS", "glycosylation activity on cis-3-hexenol (generation of cis-3-hexenyl monoglucoside)": "glycosylation activity on cis-3-hexenol"}, {"molecule": "Cs_UGT_C30: Camellia sinensis glycosyltransferase, amino acid sequence SEQ ID NO: 2, expressed His-tagged in E. coli (protein, listed as Camellia sinensis, His tag) MGSRKQPHAVCVPFPAQGHINPMMQLAKLLHSRGFYITFVNTEFNHRRLLQSKGPEFLKGCADFQFESIPDGLPPSDRDATQDPPTLCIAMRDNCLDPFRVLLKKLNNNNNSIASRQVPGVTCVVSDGAMNFAMKAAEEAGIPEVQFWTASACGFMGYLHYPQLVQRGIFPFKDESFQSDGSLDTTIDWIPGMRNIRLKDMPSFIRTTDPNDILFNYLSEEVQNCLKASAIIFNTFDTLEHQVLQAIASKFHNIYTIGPLSLLSKQVIDGEFKSLNSSLWKEDTKCLQWLDTKEPNSVVYVNYGSITVMTDQHLKEFAWGLANSKHPFLWIVRPDIVMGDSAILPEHFVEETKDRGLLVSWCPQEQVLSHPSIGVFLTHCGWNSTLESICGGVPIICWPFFAEQQTNCRYACTEWGIGMEVNHDVKRNEIVALINEMLEGDKGKQMRKKALKLKKEAEEATDVGGLSYNNFDRLIKEALHYCEQY", "glycosylation activity on cis-3-hexenol (generation of cis-3-hexenyl monoglucoside)": "glycosylation activity on cis-3-hexenol"}]}]}
